Test results as given in publication PMC10609081, “In Vivo Trafficking of the Anticancer Drug Tris(8-Quinolinolato) Gallium (III) (KP46) by Gallium-68/67 PET/SPECT Imaging” (Molecules, 2023).

What was measured:
[1] = Pilot study 1: oral [68Ga]KP46, mice kept anaesthetised for four hours, ex vivo biodistribution; assay type: in vivo; conditions: anaesthetised 0-4 h
Method: 67Ga citrate to 67Ga chloride conversion method
67Ga was provided as [67Ga]Ga-citrate, typically 418-430 MBq in 5.5 ml at the time of receipt (76-78 MBq/ml). The 67Ga-citrate solution was passed through a Sep-Pak plus light silica cartridge (part number WAT023537) at a flow rate of 1 ml/min to trap the 67Ga on the silica cartridge. The eluate was passed through again to capture more (total 80%) of the available radioactivity on the cartridge.
The cartridge was then washed twice with 5 ml of H2O to remove citric acid, then eluted with 600 µl of 0.1 M HCl in 50 µl fractions. Fractions with the highest activity (fraction 4, 5, and 6) were used for […]
Tumour xenograft development
500 Figure S11. Tumour growth profile of A375
400 human melanoma cells in female athymic nude mice (2.5 x 10^6 cells). Data are 300 reported as mean ± SD (n=24).
Developing a method for the oral administration of [68Ga]KP46
In the first pilot study, mice bearing a tumour xenograft (A375) were anaesthetised, orally administered with [68Ga]KP46 (10 MBq, 400 µl) and PET scanned (no CT scan was performed) for four hours (n = 1), or orally administered with [68Ga]KP46 (1–2 MBq, 400 µl) and kept anaesthetised for four hours (n = 3), before being culled for organ harvesting and gamma counting. […]
radioactivity was in the stomach, with minimal uptake in the small intestine. […]

[2] = Ex vivo biodistribution 2 h after intravenous injection, nu/nu mice bearing A375 xenografts; assay type: in vivo; conditions: i.v., tracer level
Method: Figure S8. Ex vivo biodistribution of [ Ga]KP46 (tracer level) in nu/nu mice bearing A375 xenografts at two hours post i.v. injection via tail vein. […] Values are […]
expressed as mean ± SD (n = 3). (See below for methods)
Methodology for ex vivo biodistribution 2 h after intravenous injection of [68Ga]KP46 Mice were intravenously injected with tracer level [68Ga]KP46 and culled two hours post injection for organ harvesting and gamma counting. Consistent with the data shown in the main manuscript for 4 […]
[68Ga]KP46. Activity was also observed in the kidneys (30%ID/g for both kidneys) and urine, indicating excretion through urinary system. Significant activity was also seen in the lungs, heart, and small intestine (14.3 ± 0.6, 12.6 ± 1.7 and 12 ± 2.6 %ID/g, respectively), with minimal activity accumulating in the tumour (3.4 ± 0.4%ID/g) (Figure S8). […]

[3] = system: A375 (human melanoma) cells; assay: Cellular uptake of radiogallium in cultured A375 cells; assay type: cell-based; conditions: 1 h
Method: One million A375 (human melanoma) cells were suspended in 0.5 mL of Dulbecco’s Modified Eagle’s Medium (500 mL DMEM, low-glucose medium with 50 mL 10% FBS, 5 mL of L-glutamine, and 5 mL of penicillin and streptomycin) in 1.5 mL Eppendorf tubes. An amount of 10 µL of no-carrier-added [^68Ga]KP46 or [^68Ga]gallium acetate was added to the cell suspensions (giving a ^68Ga concentration of ca. 20 pM) and to similar tubes containing medium but no cells (to check and compensate for adhesion of radioactivity to tubes). Samples were incubated for 60 min at 37 °C under 5% CO2 and then centrifuged (Sci Spin Mini) for three minutes at 1500 RPM. The supernatants were transferred to fresh Eppendorf tubes. The pellets were washed twice with 0.5 mL PBS, following the same centrifugation protocol, and washes were added to the supernatant tubes. Supernatants and cell pellets were measured using a gamma counter to determine the average activity in cell pellets as a % of the total activity for each sample. The intracellular-to-extracellular ^68Ga concentration ratio was also estimated by correcting for the different volume of supernatant and cell pellet using an estimated spherical cell diameter of 17.5 μm, which leads to an estimated volume of the cell pellet (10^6 cells) of 2.8 μL.

SMILES: [68Ga+3].[O-]c1cccc2cccnc12.[O-]c1cccc2cccnc12.[O-]c1cccc2cccnc12 [[^68Ga]KP46]
- activity in tumour, ex vivo [1]: 0.6 ± 0.3 %ID/g
- activity in kidneys, ex vivo ([2]; both kidneys): 30 %ID/g
- activity in heart, ex vivo ([2]; n = 3): 12.6 ± 1.7 %ID/g
- activity in liver, ex vivo ([2]; n = 3): 31.4 ± 3.8 %ID/g
- activity in lungs, ex vivo ([2]; n = 3): 14.3 ± 0.6 %ID/g
- activity in small intestine, ex vivo ([2]; n = 3): 12 ± 2.6 %ID/g
- activity in tumour, ex vivo ([2]; n = 3): 3.4 ± 0.4 %ID/g
- cellular uptake (% radioactivity added, corrected for nonspecific binding to vessel) ([3]; DMEM containing FBS, n = 3): 2.55% ± 1%
- intracellular-to-extracellular concentration ratio ([3]; corrected data, estimated cell pellet volume 2.8 μL): 14 ± 6
